Key:
[1] = compared with H2; stated as known; cited from earlier work
[2] = test system: injured nerve cells of the spinal cord / spinal cord-injured animal model; details: high-concentration hydrogen of, for example, 50% or more; X. Chen 2018, C. Chen 2010; cited from earlier work
[3] = test system: symptoms of cervical spine/cervical cord injury
Procedure: They restored consciousness about a week after the accident.
Immediately before inhalation of hydrogen gas 6 years after the accident, they went to work in the afternoon 4 or 5 days a week, and stayed at home throughout a day when they felt ill. Further, they occasionally saw a doctor of psychiatry.
About 6 years after the accident, the patient underwent inhalation of hydrogen (hydrogen inhalation equipment: MHG-2000a Type, hydrogen concentration: 6 to 7.5%, hydrogen gas production rate: 140 mL/min, MiZ Company Limited (Kanagawa, Japan) over a period from Oct. 4, 2018 to May 12, 2019. Hydrogen was aspirated twice a day, once in the morning and once in the afternoon, for a total of 2 to 7.5 hours (an average of 3.3 hours a day), and as symptoms, pain, disordered sleep, decreased appetite, physical fatigue, mental fatigue, nervous fatigue, burning sensation on the back and foot spasticity were evaluated on Face Pain Scale (FPS; scale: 0 to 5) for about 7 months.
The FAS scales in FIGS. 1 to 5 indicate how the state changed after inhalation as compared to the state before inhalation. […] In FIGS. 1 to 5, the number of scores (e.g. 0 to 3) was counted for each of the periods, and the ratio (%) of the scores in each item was calculated. In the diagrams, the numbers shown outside the table represent the total numbers of respective scores.
Further, on May 13, 2019, the patient started inhalation of hydrogen using hydrogen gas inhalation equipment for professional use (hydrogen concentration: 6 to 7.5%, hydrogen gas production rate: 1,120 mL/min, MiZ Company Limited) instead of the hydrogen inhalation equipment MHG-2000a Type.
FIGS. 1 to 5 show the results of counting over a period from Oct. 4, 2018 to Feb. 14, 2019.
The patient recorded the FAS scores as well as their feeling before and after inhalation on paper record forms as will be described below.

[4] = normal temperature and normal pressure; also printed as 1.6 mg/L; cited from earlier work

Row | SMILES | superoxide eliminating action [1] | nerve cells of the spinal cord [2] | oxidative stress [2] | FAS “4” and FAS “5” scores ([3]; Oct. 4, 2018 to Feb. 14, 2019, all items, hydrogen 6 to 7.5%, 140 mL/min) | improvement in pain, sleep, appetite, physical fatigue, mental fatigue and nervous fatigue (Face Pain Scale scores) ([3]; Oct. 4 to Oct. 31, 2018, inhalation, hydrogen 6 to 7.5%, 140 mL/min, average 3.3 hours a day, FAS 0 and 1 scores recorded) | improvement in sensation on the back and improvement in foot spasticity (Face Pain Scale scores) ([3]; Oct. 4 to Oct. 31, 2018, inhalation, hydrogen 6 to 7.5%, 140 mL/min, FAS 2 and 3 scores, occasionally 1) | Face Pain Scale scores, all items, before against after inhalation ([3]; from May 13, 2019, equipment for professional use, hydrogen 6 to 7.5%, 1,120 mL/min) | ratio of FAS “1” scores ([3]; in and after November 2018, against inhalation time, hydrogen 6 to 7.5%, 140 mL/min) | FAS score recorded in any of the items ([3]; on and after Dec. 1, 2018, continuous inhalation, hydrogen 6 to 7.5%, 140 mL/min, scale 0 to 5) | body temperature and sweating reported by the patient ([3]; record May 13, 2019, equipment 1,120 mL/min, hydrogen 6 to 7.5%) | patient's recorded feeling (spasticity, peripheral nerve, metabolism, flow of blood, induction of sleep) ([3]; record May 13, 2019, equipment 1,120 mL/min, hydrogen 6 to 7.5%, compared with before) | concentration of hydrogen dissolved in water [4]
1 | [2H][2H] [D2, deuterium] | higher than that of H2 | – | – | – | – | – | – | – | – | – | – | –
2 | [HH] [hydrogen gas, molecular hydrogen] | – | the nerve cells of the spinal cord were protected | oxidative stress was suppressed | not recorded at all | good improvement tendency | the improvement tendency was unknown or became worse | improvement occurred in all the items | tended to increase as the inhalation time increased | 3 | the body temperature rises, and thus sweating cannot be stopped | a more potent effect is exhibited | about 1.6 ppm

Reference: US20200384013A1, “COMPOSITION FOR IMPROVEMENT OF SYMPTOMS OF SPINAL CORD INJURY” (MiZ Company Limited, priority 2019, published 2020)
